The AC50 is the concentration giving half of the maximal activity seen.

One experiment addresses T1, Adenosine receptor A1 (Homo sapiens, UniProt P30542).
T1 sequence (P30542 whole entry): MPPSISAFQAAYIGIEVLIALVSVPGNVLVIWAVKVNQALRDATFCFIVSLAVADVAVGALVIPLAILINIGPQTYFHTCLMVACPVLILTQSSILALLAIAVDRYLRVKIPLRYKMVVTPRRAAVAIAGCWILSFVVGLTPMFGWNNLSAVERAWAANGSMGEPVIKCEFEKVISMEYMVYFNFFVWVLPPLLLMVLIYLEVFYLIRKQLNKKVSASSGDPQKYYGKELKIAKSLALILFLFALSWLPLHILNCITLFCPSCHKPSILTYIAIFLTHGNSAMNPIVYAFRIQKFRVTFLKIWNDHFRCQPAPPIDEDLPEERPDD

Another experiment concerns the target T2, Glucocorticoid receptor (Homo sapiens, UniProt P04150).
T2 sequence (P04150 whole entry): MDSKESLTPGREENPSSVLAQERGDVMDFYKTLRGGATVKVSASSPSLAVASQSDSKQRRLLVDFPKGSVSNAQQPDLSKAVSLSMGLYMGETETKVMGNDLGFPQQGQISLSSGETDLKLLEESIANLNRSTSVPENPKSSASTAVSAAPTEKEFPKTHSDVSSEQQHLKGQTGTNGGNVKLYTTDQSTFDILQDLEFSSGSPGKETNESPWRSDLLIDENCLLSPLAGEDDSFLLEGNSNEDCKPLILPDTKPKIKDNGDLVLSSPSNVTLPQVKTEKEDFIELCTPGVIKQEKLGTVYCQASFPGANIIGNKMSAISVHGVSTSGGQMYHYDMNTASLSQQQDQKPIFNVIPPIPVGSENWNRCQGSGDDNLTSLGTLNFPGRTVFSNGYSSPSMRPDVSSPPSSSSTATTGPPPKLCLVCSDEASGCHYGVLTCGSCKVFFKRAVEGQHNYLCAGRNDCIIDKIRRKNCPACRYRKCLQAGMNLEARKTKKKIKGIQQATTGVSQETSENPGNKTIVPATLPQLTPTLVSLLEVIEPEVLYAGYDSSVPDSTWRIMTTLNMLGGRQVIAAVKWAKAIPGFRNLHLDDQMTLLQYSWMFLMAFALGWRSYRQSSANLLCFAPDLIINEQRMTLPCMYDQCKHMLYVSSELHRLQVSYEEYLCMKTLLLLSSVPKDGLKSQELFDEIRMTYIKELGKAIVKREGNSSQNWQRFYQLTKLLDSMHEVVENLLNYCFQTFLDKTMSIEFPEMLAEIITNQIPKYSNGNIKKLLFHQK

The target in experiment [1] is T3, Muscarinic acetylcholine receptor M1 (Homo sapiens, UniProt P11229).
T3 sequence (P11229 whole entry): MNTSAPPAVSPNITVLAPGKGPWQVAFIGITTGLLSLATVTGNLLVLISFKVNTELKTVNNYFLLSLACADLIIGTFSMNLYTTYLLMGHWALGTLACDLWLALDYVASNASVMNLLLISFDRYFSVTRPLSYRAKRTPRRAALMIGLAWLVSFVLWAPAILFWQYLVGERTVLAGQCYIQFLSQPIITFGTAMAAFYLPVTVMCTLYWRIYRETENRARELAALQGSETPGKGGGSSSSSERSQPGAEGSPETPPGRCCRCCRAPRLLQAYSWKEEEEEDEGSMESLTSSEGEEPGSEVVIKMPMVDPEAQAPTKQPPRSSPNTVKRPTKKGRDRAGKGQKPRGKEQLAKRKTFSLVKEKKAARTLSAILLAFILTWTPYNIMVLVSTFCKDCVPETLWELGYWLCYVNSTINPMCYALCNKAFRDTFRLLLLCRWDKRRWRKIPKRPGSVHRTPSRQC
In kind it is functional.

In experiment [2] the target is T4, Alpha-2A adrenergic receptor (Homo sapiens, UniProt P08913).
T4 sequence (P08913 whole entry): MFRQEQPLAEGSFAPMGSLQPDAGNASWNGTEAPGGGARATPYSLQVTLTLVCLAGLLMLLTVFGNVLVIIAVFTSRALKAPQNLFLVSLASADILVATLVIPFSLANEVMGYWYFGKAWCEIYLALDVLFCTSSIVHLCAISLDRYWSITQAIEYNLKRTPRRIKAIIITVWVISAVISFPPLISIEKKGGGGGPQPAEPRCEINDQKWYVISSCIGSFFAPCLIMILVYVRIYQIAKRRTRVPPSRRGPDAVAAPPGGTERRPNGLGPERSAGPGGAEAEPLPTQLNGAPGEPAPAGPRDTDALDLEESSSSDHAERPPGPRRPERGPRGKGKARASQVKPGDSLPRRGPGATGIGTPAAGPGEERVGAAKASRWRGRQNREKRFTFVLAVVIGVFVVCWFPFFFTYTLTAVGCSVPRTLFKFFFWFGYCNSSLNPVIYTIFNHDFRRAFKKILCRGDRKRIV

The target in another experiment is T5, Endothelin-1 receptor (Homo sapiens, UniProt P25101).
T5 sequence (P25101 whole entry): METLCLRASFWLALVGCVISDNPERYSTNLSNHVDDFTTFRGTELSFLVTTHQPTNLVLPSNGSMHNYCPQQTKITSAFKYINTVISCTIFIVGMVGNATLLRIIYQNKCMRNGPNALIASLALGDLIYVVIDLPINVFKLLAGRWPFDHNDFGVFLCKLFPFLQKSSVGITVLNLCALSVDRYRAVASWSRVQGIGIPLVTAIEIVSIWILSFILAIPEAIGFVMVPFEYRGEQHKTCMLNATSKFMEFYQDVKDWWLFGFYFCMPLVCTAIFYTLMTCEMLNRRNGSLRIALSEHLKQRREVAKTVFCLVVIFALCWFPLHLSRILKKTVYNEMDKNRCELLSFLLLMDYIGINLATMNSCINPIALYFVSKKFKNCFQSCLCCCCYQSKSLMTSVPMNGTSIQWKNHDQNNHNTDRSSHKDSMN

In the next experiment the target is Histamine H1 receptor (Homo sapiens, UniProt P35367).
For experiment [3], the target named is Muscarinic acetylcholine receptor M3 (Homo sapiens, UniProt P20309).
In experiment [4] the target is Beta-2 adrenergic receptor (Homo sapiens, UniProt P07550). In kind it is functional, cell-based.

SMILES strings stand for the structures.
Note: assay procedure not described here.

Histamine H1 receptor, sequence (P35367 whole entry): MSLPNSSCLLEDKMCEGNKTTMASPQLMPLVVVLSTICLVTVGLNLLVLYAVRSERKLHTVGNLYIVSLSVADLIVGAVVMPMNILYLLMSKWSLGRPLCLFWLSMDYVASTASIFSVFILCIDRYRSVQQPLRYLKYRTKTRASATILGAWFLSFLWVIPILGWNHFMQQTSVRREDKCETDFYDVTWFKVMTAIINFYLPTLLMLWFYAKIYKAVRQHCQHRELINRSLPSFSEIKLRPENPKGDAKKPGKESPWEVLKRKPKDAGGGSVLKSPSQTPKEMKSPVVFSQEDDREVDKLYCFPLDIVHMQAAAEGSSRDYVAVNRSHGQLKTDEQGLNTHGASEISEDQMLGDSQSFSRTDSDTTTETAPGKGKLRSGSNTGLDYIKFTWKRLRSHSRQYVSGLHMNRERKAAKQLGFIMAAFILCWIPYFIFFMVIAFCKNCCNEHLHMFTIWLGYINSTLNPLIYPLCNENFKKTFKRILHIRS
Muscarinic acetylcholine receptor M3, sequence (P20309 whole entry): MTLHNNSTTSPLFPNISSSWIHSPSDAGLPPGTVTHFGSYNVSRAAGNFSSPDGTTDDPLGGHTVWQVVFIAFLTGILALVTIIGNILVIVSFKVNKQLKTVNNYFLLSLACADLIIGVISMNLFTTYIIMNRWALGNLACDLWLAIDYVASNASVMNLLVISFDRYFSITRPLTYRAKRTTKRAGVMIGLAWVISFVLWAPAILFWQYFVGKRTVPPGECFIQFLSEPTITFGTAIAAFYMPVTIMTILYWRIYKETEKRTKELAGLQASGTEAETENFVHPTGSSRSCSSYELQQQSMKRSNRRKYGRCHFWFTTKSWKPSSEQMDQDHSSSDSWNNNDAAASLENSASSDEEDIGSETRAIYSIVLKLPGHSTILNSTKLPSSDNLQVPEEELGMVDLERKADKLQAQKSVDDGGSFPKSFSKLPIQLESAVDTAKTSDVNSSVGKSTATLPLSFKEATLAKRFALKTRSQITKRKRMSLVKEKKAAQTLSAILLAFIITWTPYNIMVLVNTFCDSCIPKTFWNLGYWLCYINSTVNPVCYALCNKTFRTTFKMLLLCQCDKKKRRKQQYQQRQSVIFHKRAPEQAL
Beta-2 adrenergic receptor, sequence (P07550 whole entry): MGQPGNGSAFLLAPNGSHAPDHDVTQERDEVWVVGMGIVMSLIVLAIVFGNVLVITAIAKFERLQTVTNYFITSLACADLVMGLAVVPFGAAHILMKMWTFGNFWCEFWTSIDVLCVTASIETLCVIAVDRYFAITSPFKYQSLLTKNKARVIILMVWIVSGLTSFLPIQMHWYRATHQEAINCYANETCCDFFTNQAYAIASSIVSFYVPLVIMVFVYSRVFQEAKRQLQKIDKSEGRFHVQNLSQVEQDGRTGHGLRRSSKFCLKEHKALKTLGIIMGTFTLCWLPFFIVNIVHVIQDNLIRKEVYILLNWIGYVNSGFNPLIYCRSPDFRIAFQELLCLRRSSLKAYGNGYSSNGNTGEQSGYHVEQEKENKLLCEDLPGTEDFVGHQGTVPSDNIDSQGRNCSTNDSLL

In the case of `O=C(/C=C/c1cccc(S(=O)(=O)Nc2ccccc2)c1)NO` [BELINOSTAT], the AC50 at Adenosine receptor A1 was greater than 30 µM; at Glucocorticoid receptor, greater than 30 µM; in experiment [1], greater than 10 µM; in experiment [2], greater than 10 µM; on Endothelin-1 receptor, greater than 10 µM; at Histamine H1 receptor, greater than 10 µM. In experiment [3], this molecule had a concentration at half-maximal activity (AC50) greater than 30 µM.

Take `CC(O)(CS(=O)(=O)c1ccc(F)cc1)C(=O)Nc1ccc(C#N)c(C(F)(F)F)c1` (stereo not given) [BICALUTAMIDE]: the concentration at half-maximal activity (AC50) is greater than 30 µM on Adenosine receptor A1; greater than 30 µM at Glucocorticoid receptor; greater than 10 µM in experiment [2]; greater than 30 µM in experiment [4]; greater than 30 µM at Endothelin-1 receptor.

In the case of `CC(=O)O[C@]1(C(C)=O)CC[C@H]2[C@@H]3C=C(Cl)C4=CC(=O)[C@@H]5C[C@@H]5[C@]4(C)[C@H]3CC[C@@]21C` [CYPROTERONE ACETATE], the AC50 was greater than 30 µM on Adenosine receptor A1 and greater than 10 µM in experiment [2].

As to `C[C@@H]1C[C@H]2[C@@H]3C[C@H](F)C4=CC(=O)C=C[C@]4(C)[C@@]3(F)[C@@H](O)C[C@]2(C)[C@@]1(OC(=O)c1ccco1)C(=O)SCF` [FLUTICASONE FUROATE], the concentration at half-maximal activity (AC50) at Adenosine receptor A1 is greater than 30 µM; in experiment [1] it was greater than 10 µM; in experiment [2], greater than 10 µM; on Endothelin-1 receptor, greater than 10 µM; at Histamine H1 receptor, greater than 10 µM; in experiment [3] it was greater than 30 µM.

The values above are taken from ChEMBL document CHEMBL5291721, “A preclinical secondary pharmacology resource illuminates target-adverse drug reaction associations of marketed drugs” (Nat Commun, 2023).
